Experimental data: patent US8552048B2, “Phosphoramidate alkylator prodrugs for the treatment of cancer” (Threshold Pharmaceuticals, Inc., priority 2006, dated 2013)
Read-outs that look alike come from different tables or passages of the source.

Key:
[1] = tested on: IGROV1 human ovarian cancer cells; test: IGROV1 ovarian cancer xenograft; assay type: in vivo; settings: 75 mg/kg i.v. Q7D×2
Experimental: Forty nude mice were subcutaneously implanted with IGROV1 human ovarian cancer cells (5×10^6 cells/mouse). The tumor volumes were measured twice weekly starting on day 7. On day 8, tumor volumes reached about 97.7±3.9 mm^3. The mice were randomized in 3 treatment groups that were administered the following: CDDP (4 mg/kg, ip, Q7D×2), CDDP (6 mg/kg, i.p. Q7D×2), and TH302 (75 mg/kg, i.v., Q7D×2). A control group of mice were administered saline. […] Forty five days after the first administration of TH302, tumor growth inhibition was 66%. The tumor growth delay (to 300 mm^3) was 19 days.

[2] = tested on: H460 human non small cell cancer (NSCLC) cells; test: H460 tumor excision clonogenic assay (surviving fraction) under different oxygen levels; assay type: in vivo, mice; settings: single 50 mg/kg i.v., tumors removed 24 h post treatment
Experimental: H460 human non small cell cancer (NSCLC) cells were prepared in 30% or 50% matrigel in PRIM medium. Then 2×10^6 cells suspended in 50% matrigel were implanted subcutaneously in the right flank in 35 mice (0.2 mL/mouse), 0.5×10^6 cells suspended in 30% matrigel were similarly implanted in 30 mice. Mice bearing similar sized tumors, preferably ˜300 mm^3 were selected for TH302 administration. TH302 was formulated in saline and a single dose administered intravenously at 50 mg/kg.
The mice were placed in 95% and 10% O2 chamber for 30 min before the dosing and returned to the chamber for 2 hours immediately after treatment. Twenty-four hours post treatment, tumors were removed. The tumor tissue was minced and obtain single cells were obtained by digesting the minced tissue with an enzyme cocktail for 15 min at 37° C. with stirring, and filtering through a 40 μm sterile mash. Cell numbers were counted by a coulter counter. After a serial dilution, the ells were placed in a 60 or 100 mm Petri dish and incubated at 37° C. for 8 to 10 days for the colonies to form. The colonies were counted after stained with crystal violet (0.25% in 95% ethanol). The plating efficiency (PE) was calculated by dividing the number of colonies formed by the number of cells seeded. The surviving fraction (SF) was calculated by dividing as the PE of treated cells by PE of the cells from saline control.

[3] = Single-dose toxicity in rats; assay type: in vivo
Experimental: A single-dose of TH302 was administered to rats and dogs over 30 min in order to achieve a rapid increase to relatively high drug levels. Rats were administered 50, 100, and 200 mg/kg, and dogs at 8, 16 and 32 mg/kg of TH302. […] These changes at the lowest toxicity level were fully reversible within 2 weeks.

[4] = Pharmacokinetics of TH302 in Beagle Dogs (Table 6); assay type: in vivo; settings: dog, plasma, intravenous; for half-life: read-out: T½ (converted); for Vd: read-out: Vss
[5] = Interspecies scaling (complex Dedrick analysis); settings: 70-kg human
Experimental: Pharmacokinetic studies were performed in male CD-1 (50 mg/kg i.p. or orally (p.o.)) or female nude mice (50 mg/kg i.v. or i.p.), male Sprague-Dawley rats (1, 5, 20 and 50 mg/kg i.v. and 100 mg/kg, p.o.), beagle dogs (20 mg/kg, i.v.) and cynomologus monkeys (20 mg/kg i.v.). Plasma TH302 concentrations were analyzed using a LC/MS method and the pharmacokinetic parameters computed using a noncompartmental method. Interspecies scaling was performed according to standard methods.
Parts A, B, and C, below tabulate the pharmacokinetics of TH302 when administered to rats, Dogs, and monkeys.

In the case of `Cn1c(COP(=O)(NCCBr)NCCBr)cnc1[N+](=O)[O-]` [TH302], the “body weight during the treatment period” value [1] is reported as “body weight gain”, the “tumor growth delay (to 300 mm^3)” value [1] is reported as 19 days and the “growth inhibition (significance)” value ([1]; P<0.05) is reported as “significant growth inhibition”. For the same compound, the tumor growth inhibition ([1]; forty five days after the first administration) was 66%, the “mean surviving fraction (SF)” value ([2]; mice breathing 10% O2) was 2.58% and the “mean surviving fraction (SF)” value ([2]; mice breathing 21% O2) was 5.76%. For the same compound, the “mean surviving fraction (SF)” value ([2]; mice breathing 95% O2) was 50.38%, the “affected organs at the highest dose level” value ([3]; 200 mg/kg single dose) was “bone marrow, kidney, thymus and intestine” and the lethality ([3]; single dose over 30 min, highest dose 200 mg/kg) was “lethality was observed”. The “primary findings at the lowest toxicity level” value ([3]; single dose study) was “reduction in white blood cell counts accompanied only by moderate weight loss in male rats”, the “time to full reversal of changes at the lowest toxicity level” value ([3]; single dose study) was ≤ 2 weeks and the “species specific toxicity at the highest dose” value ([3]; single dose, 200 mg/kg) was “rat adipose and spleen”. For the same compound, the AUC ([4]; female, Females, 4 mg/kg) was 2270 ng·h/mL, the Cmax ([4]; female, Females, 4 mg/kg) was 3830 ng/mL and the Tmax ([4]; female, Females, 4 mg/kg) was 31 min. The clearance ([4]; female, Females, 4 mg/kg) was 29.3 mL/min/kg, the half-life ([4]; female, Females, 4 mg/kg) was 16.1 min and the Vd ([4]; female, Females, 4 mg/kg) was 0.785 L/kg. For the same compound, the AUC ([4]; female, Females, 8 mg/kg) was 3400 ng·h/mL, the Cmax ([4]; female, Females, 8 mg/kg) was 6410 ng/mL and the Tmax ([4]; female, Females, 8 mg/kg) was 31.5 min. For the same compound, the clearance ([4]; female, Females, 8 mg/kg) was 39.7 mL/min/kg, the half-life ([4]; female, Females, 8 mg/kg) was 15.1 min and the Vd ([4]; female, Females, 8 mg/kg) was 0.974 L/kg. For the same compound, the AUC ([4]; female, Females, 16 mg/kg) was 7660 ng·h/mL, the Cmax ([4]; female, Females, 16 mg/kg) was 13700 ng/mL and the Tmax ([4]; female, Females, 16 mg/kg) was 31 min. The clearance ([4]; female, Females, 16 mg/kg) was 34.8 mL/min/kg, the half-life ([4]; female, Females, 16 mg/kg) was 16.7 min and the Vd ([4]; female, Females, 16 mg/kg) was 0.874 L/kg. It also gave an AUC ([4]; female, Females, 32 mg/kg) of 9530 ng·h/mL, a Cmax ([4]; female, Females, 32 mg/kg) of 18500 ng/mL and a Tmax ([4]; female, Females, 32 mg/kg) of 31 min. The clearance ([4]; female, Females, 32 mg/kg) was 56.5 mL/min/kg, the half-life ([4]; female, Females, 32 mg/kg) was 15.4 min and the Vd ([4]; female, Females, 32 mg/kg) was 1.37 L/kg. For the same compound, the AUC ([4]; male, Males, 4 mg/kg) was 2330 ng·h/mL, the Cmax ([4]; male, Males, 4 mg/kg) was 4160 ng/mL and the Tmax ([4]; male, Males, 4 mg/kg) was 37 min. The clearance ([4]; male, Males, 4 mg/kg) was 28.3 mL/min/kg, the half-life ([4]; male, Males, 4 mg/kg) was 16.1 min and the Vd ([4]; male, Males, 4 mg/kg) was 0.822 L/kg. The AUC ([4]; male, Males, 8 mg/kg) was 3640 ng·h/mL, the Cmax ([4]; male, Males, 8 mg/kg) was 6350 ng/mL and the Tmax ([4]; male, Males, 8 mg/kg) was 31.5 min. The clearance ([4]; male, Males, 8 mg/kg) was 37.2 mL/min/kg, the half-life ([4]; male, Males, 8 mg/kg) was 15.6 min and the Vd ([4]; male, Males, 8 mg/kg) was 0.982 L/kg. For the same compound, the AUC ([4]; male, Males, 16 mg/kg) was 6200 ng·h/mL, the Cmax ([4]; male, Males, 16 mg/kg) was 10800 ng/mL and the Tmax ([4]; male, Males, 16 mg/kg) was 31.5 min. It also gave a clearance ([4]; male, Males, 16 mg/kg) of 43 mL/min/kg, a half-life ([4]; male, Males, 16 mg/kg) of 15.5 min and a Vd ([4]; male, Males, 16 mg/kg) of 1.1 L/kg. For the same compound, the AUC ([4]; male, Males, 32 mg/kg) was 11000 ng·h/mL, the Cmax ([4]; male, Males, 32 mg/kg) was 23000 ng/mL and the Tmax ([4]; male, Males, 32 mg/kg) was 31.5 min. For the same compound, the clearance ([4]; male, Males, 32 mg/kg) was 48.5 mL/min/kg, the half-life ([4]; male, Males, 32 mg/kg) was 14.9 min and the Vd ([4]; male, Males, 32 mg/kg) was 1.12 L/kg. For the same compound, the “predicted Cl” value [5] was 109 L/h and the “predicted Vss” value [5] was 493 L.
